The structures appear in SMILES notation. Some results are limits rather than exact numbers.

This note sets out measurements from US20230150970A1, “AMINOPYRIMIDINE DERIVATIVES AND THEIR USE AS ARYL HYDROCARBON RECEPTOR MODULATORS” (DONG-A ST CO., LTD., priority 2020, published 2023).

This assay addresses T1, AhR (Homo sapiens, UniProt P35869).
T1 sequence (P35869 11-848): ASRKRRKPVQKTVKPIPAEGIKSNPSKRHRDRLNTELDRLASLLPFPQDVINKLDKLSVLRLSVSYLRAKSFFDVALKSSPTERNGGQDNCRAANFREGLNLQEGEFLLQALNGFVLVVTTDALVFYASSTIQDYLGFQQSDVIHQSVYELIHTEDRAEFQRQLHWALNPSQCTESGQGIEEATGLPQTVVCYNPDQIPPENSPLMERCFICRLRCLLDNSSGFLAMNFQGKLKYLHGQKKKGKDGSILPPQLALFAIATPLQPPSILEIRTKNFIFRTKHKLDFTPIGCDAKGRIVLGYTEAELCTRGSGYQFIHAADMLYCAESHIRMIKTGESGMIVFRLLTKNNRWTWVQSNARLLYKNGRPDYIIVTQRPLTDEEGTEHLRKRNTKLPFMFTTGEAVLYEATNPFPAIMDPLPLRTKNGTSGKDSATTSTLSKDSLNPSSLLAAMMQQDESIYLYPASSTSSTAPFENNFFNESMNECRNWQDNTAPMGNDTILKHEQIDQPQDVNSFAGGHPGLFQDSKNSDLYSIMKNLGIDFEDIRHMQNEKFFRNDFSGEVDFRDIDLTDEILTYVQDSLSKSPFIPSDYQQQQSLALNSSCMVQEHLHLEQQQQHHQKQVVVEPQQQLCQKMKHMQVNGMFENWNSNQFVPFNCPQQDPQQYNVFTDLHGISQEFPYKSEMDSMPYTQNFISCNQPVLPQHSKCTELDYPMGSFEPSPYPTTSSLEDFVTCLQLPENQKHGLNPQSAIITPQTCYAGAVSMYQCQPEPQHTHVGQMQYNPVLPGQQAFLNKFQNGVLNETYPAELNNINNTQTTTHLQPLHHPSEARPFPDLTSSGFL
The assay can be described thus: In Vitro Assay 1: XRE-luciferase reporter assay, antagonism in human cell line (HepG2). Particulars: Assay 1: AhR-Luc Human Antagonism (IC50, nM), values marked *: kynurenine 50 μM, 6 hours.
Compound `Clc1ccc(-c2cc(NCc3ccncc3)nc(-c3cccnc3)n2)cc1` [Example 33, 6-(4-chlorophenyl)-2-(pyridin-3-yl)-N-(pyridin-4-ylmethyl)pyrimidin-4-amine] returned an IC50 of 100 to 1000 nM.
As for `O[C@H]1CC[C@H](Nc2cc(-c3ccc(Cl)cc3)nc(-c3cccnc3)n2)CC1` [Example 34, trans-4-((6-(4-chlorophenyl)-2-(pyridin-3-yl)pyrimidin-4-yl)amino)cyclohexan-1-ol], the half-maximal inhibitory concentration (IC50) was 10 to 100 nM.
For the compound `OCC1CCCCN1c1cc(-c2ccc(Cl)cc2)nc(-c2cccnc2)n1` (stereo not drawn) [Example 36, (1-(6-(4-chlorophenyl)-2-(pyridin-3-yl)pyrimidin-4-yl)piperidin-2-yl)methanol], the concentration for half-maximal inhibition (IC50) was in the range of 10 to 100 nM.
With `OCCC1CCCCN1c1cc(-c2ccc(Cl)cc2)nc(-c2cccnc2)n1` (stereo not drawn) [Example 37, 2-(1-(6-(4-chlorophenyl)-2-(pyridin-3-yl)pyrimidin-4-yl)piperidin-2-yl)ethan-1-ol] the figure was more than 1000 nM.
With `O[C@@H]1CCCN(c2cc(-c3ccc(Cl)cc3)nc(-c3cccnc3)n2)C1` [Example 38, (R)-1-(6-(4-chlorophenyl)-2-(pyridin-3-yl)pyrimidin-4-yl)piperidin-3-ol] the figure was less than 10 nM.
`OC1CCCN(c2cc(-c3ccc(Cl)cc3)nc(-c3cccnc3)n2)C1` (stereo not drawn) [Example 39, 1-(6-(4-chlorophenyl)-2-(pyridin-3-yl)pyrimidin-4-yl)piperidin-3-ol] yielded a half-inhibitory concentration (IC50) of 10 to 100 nM.
The compound `OCC1CCCN(c2cc(-c3ccc(Cl)cc3)nc(-c3cccnc3)n2)C1` (stereo not drawn) [Example 40, (1-(6-(4-chlorophenyl)-2-(pyridin-3-yl)pyrimidin-4-yl)piperidin-3-yl)methanol] returned an IC50 of 10 to 100 nM.
With `OC1CCN(c2cc(-c3ccc(Cl)cc3)nc(-c3cccnc3)n2)CC1` [Example 41, 1-(6-(4-chlorophenyl)-2-(pyridin-3-yl)pyrimidin-4-yl)piperidin-4-ol] the figure was less than 10 nM; with `OCCCC1CCN(c2cc(-c3ccc(Cl)cc3)nc(-c3cccnc3)n2)CC1` [Example 44, 3-(1-(6-(4-chlorophenyl)-2-(pyridin-3-yl)pyrimidin-4-yl)piperidin-4-yl)propan-1-ol], less than 10 nM; with `COC1CCN(c2cc(-c3ccc(Cl)cc3)nc(-c3cccnc3)n2)CC1` [Example 45, 4-(4-chlorophenyl)-6-(4-methoxypiperidin-1-yl)-2-(pyridin-3-yl)pyrimidine], 10 to 100 nM.
With `Clc1ccc(-c2cc(N3CCCCC3)nc(-c3cccnc3)n2)cc1` [Example 46, 4-(4-chlorophenyl)-6-(piperidin-1-yl)-2-(pyridin-3-yl)pyrimidine] the figure was 100 to 1000 nM; with `CC1CCCCN1c1cc(-c2ccc(Cl)cc2)nc(-c2cccnc2)n1` (stereo not drawn) [Example 47, 4-(4-chlorophenyl)-6-(2-methylpiperidin-1-yl)-2-(pyridin-3-yl)pyrimidine], more than 1000 nM; with `CC1CCCN(c2cc(-c3ccc(Cl)cc3)nc(-c3cccnc3)n2)C1` (stereo not drawn) [Example 48, 4-(4-chlorophenyl)-6-(3-methylpiperidin-1-yl)-2-(pyridin-3-yl)pyrimidine], more than 1000 nM.
Consider `CC1CCCC(C)N1c1cc(-c2ccc(Cl)cc2)nc(-c2cccnc2)n1` (stereo not drawn) [Example 49, 4-(4-chlorophenyl)-6-(2,6-dimethylpiperidin-1-yl)-2-(pyridin-3-yl)pyrimidine], for which the half-inhibitory concentration (IC50) was more than 1000 nM.
Take `CC1CC(C)CN(c2cc(-c3ccc(Cl)cc3)nc(-c3cccnc3)n2)C1` (stereo not drawn) [Example 50, 4-(4-chlorophenyl)-6-(3,5-dimethylpiperidin-1-yl)-2-(pyridin-3-yl)pyrimidine]: the IC50 was more than 1000 nM.
Take `FC1(F)CCCN(c2cc(-c3ccc(Cl)cc3)nc(-c3cccnc3)n2)C1` [Example 51, 4-(4-chlorophenyl)-6-(3,3-difluoropiperidin-1-yl)-2-(pyridin-3-yl)pyrimidine]: the half-maximal inhibitory concentration (IC50) lay in the range of 100 to 1000 nM.
In turn, `FC(F)(F)C1CCCN(c2cc(-c3ccc(Cl)cc3)nc(-c3cccnc3)n2)C1` (stereo not drawn) [Example 52, 4-(4-chlorophenyl)-2-(pyridin-3-yl)-6-(3-(trifluoromethyl)piperidin-1-yl)pyrimidine] yielded an IC50 of 100 to 1000 nM.
In turn, `CCC1CCCN(c2cc(-c3ccc(Cl)cc3)nc(-c3cccnc3)n2)C1` (stereo not drawn) [Example 53, 4-(4-chlorophenyl)-6-(3-ethylpiperidin-1-yl)-2-(pyridin-3-yl)pyrimidine] yielded an IC50 of more than 1000 nM.
With `Clc1ccc(-c2cc(NC3CCNCC3)nc(-c3cccnc3)n2)cc1` [Example 54, 6-(4-chlorophenyl)-N-(piperidin-4-yl)-2-(pyridin-3-yl)pyrimidin-4-amine] the figure was more than 1000 nM; with `Clc1ccc(-c2cc(NCC3CCCNC3)nc(-c3cccnc3)n2)cc1` (stereo not drawn) [Example 55, 6-(4-chlorophenyl)-N-(piperidin-3-ylmethyl)-2-(pyridin-3-yl)pyrimidin-4-amine], more than 1000 nM.
Consider `Clc1ccc(-c2cc(NCC3CCNCC3)nc(-c3cccnc3)n2)cc1` [Example 56, 6-(4-chlorophenyl)-N-(piperidin-4-ylmethyl)-2-(pyridin-3-yl)pyrimidin-4-amine], for which the IC50 is 100 to 1000 nM.
In turn, `CN1CCC(Nc2cc(-c3ccc(Cl)cc3)nc(-c3cccnc3)n2)CC1` [Example 57, 6-(4-chlorophenyl)-N-(1-methylpiperidin-4-yl)-2-(pyridin-3-yl)pyrimidin-4-amine] showed an IC50 of more than 1000 nM.
`Clc1ccc(-c2cc(NCCC3CCNCC3)nc(-c3cccnc3)n2)cc1` [Example 58, 6-(4-chlorophenyl)-N-(2-(piperidin-4-yl)ethyl)-2-(pyridin-3-yl)pyrimidin-4-amine] displayed an IC50 of more than 1000 nM.
In turn, `NCC1CCCCN1c1cc(-c2ccc(Cl)cc2)nc(-c2cccnc2)n1` (stereo not drawn) [Example 59, (1-(6-(4-chlorophenyl)-2-(pyridin-3-yl)pyrimidin-4-yl)piperidin-2-yl)methanamine] came in with an IC50 of more than 1000 nM.
For the compound `N[C@@H]1CCCN(c2cc(-c3ccc(Cl)cc3)nc(-c3cccnc3)n2)C1` [Example 60, (R)-1-(6-(4-chlorophenyl)-2-(pyridin-3-yl)pyrimidin-4-yl)piperidin-3-amine], the concentration for half-maximal inhibition (IC50) is more than 1000 nM.
The compound `N[C@H]1CCCN(c2cc(-c3ccc(Cl)cc3)nc(-c3cccnc3)n2)C1` [Example 61, (S)-1-(6-(4-chlorophenyl)-2-(pyridin-3-yl)pyrimidin-4-yl)piperidin-3-amine] gave a half-maximal inhibitory concentration (IC50) of more than 1000 nM.
For the compound `NCC1CCCN(c2cc(-c3ccc(Cl)cc3)nc(-c3cccnc3)n2)C1` (stereo not drawn) [Example 62, (1-(6-(4-chlorophenyl)-2-(pyridin-3-yl)pyrimidin-4-yl)piperidin-3-yl)methanamine], the half-maximal inhibitory concentration (IC50) is more than 1000 nM.
`NC[C@@H]1CCCN(c2cc(-c3ccc(Cl)cc3)nc(-c3cccnc3)n2)C1` [Example 63, (S)-(1-(6-(4-chlorophenyl)-2-(pyridin-3-yl)pyrimidin-4-yl)piperidin-3-yl)methanamine] had an IC50 of more than 1000 nM.
`NC1CCN(c2cc(-c3ccc(Cl)cc3)nc(-c3cccnc3)n2)CC1` [Example 64, 1-(6-(4-chlorophenyl)-2-(pyridin-3-yl)pyrimidin-4-yl)piperidin-4-amine]: the half-maximal inhibitory concentration (IC50) is 100 to 1000 nM.
Take `NCC1CCN(c2cc(-c3ccc(Cl)cc3)nc(-c3cccnc3)n2)CC1` [Example 65, (1-(6-(4-chlorophenyl)-2-(pyridin-3-yl)pyrimidin-4-yl)piperidin-4-yl)methanamine]: the half-inhibitory concentration (IC50) was 100 to 1000 nM.
In turn, `O[C@@H]1CCC[C@@H]1Nc1cc(-c2ccc(Cl)cc2)nc(-c2cccnc2)n1` [Example 66, (1R,2S)-2-((6-(4-chlorophenyl)-2-(pyridin-3-yl)pyrimidin-4-yl)amino)cyclopentan-1-ol] registered a half-maximal inhibitory concentration (IC50) of more than 1000 nM.
In turn, `O[C@H]1CCC[C@@H]1Nc1cc(-c2ccc(Cl)cc2)nc(-c2cccnc2)n1` [Example 67, (1S,2S)-2-((6-(4-chlorophenyl)-2-(pyridin-3-yl)pyrimidin-4-yl)amino)cyclopentan-1-ol] registered an IC50 of 100 to 1000 nM.
The compound `O[C@@H]1CCCC[C@H]1Nc1cc(-c2ccc(Cl)cc2)nc(-c2cccnc2)n1` [Example 69, (1R,2R)-2-((6-(4-chlorophenyl)-2-(pyridin-3-yl)pyrimidin-4-yl)amino)cyclohexan-1-ol] registered an IC50 of 100 to 1000 nM.
For the compound `Clc1ccc(-c2cc(N3CCOCC3)nc(-c3cccnc3)n2)cc1` [Example 71, 4-(6-(4-chlorophenyl)-2-(pyridin-3-yl)pyrimidin-4-yl)morpholine], the IC50 is 10 to 100 nM.
The compound `Clc1ccc(-c2cc(NCC3CNCCO3)nc(-c3cccnc3)n2)cc1` (stereo not drawn) [Example 72, 6-(4-chlorophenyl)-N-(morpholin-2-ylmethyl)-2-(pyridin-3-yl)pyrimidin-4-amine] yielded an IC50 of more than 1000 nM.
In turn, `Clc1ccc(-c2cc(N3CCC(N4CCOCC4)C3)nc(-c3cccnc3)n2)cc1` (stereo not drawn) [Example 73, 4-(1-(6-(4-chlorophenyl)-2-(pyridin-3-yl)pyrimidin-4-yl)pyrrolidin-3-yl)morpholine] yielded an IC50 of more than 1000 nM.
